# Laboratory results: PMC12143354, “Determining sex differences in aortic valve myofibroblast responses to drug combinations identified using a digital medicine platform” (Science Advances, 2025)
# Where two headings read alike, the source gives them in different places.
# Legend:
# [1] = system: male VICs; assay: percent αSMA GMI reduction, male VICs on soft hydrogels; format: cell-based, pig; conditions: single drug at L2 dose, n = 3 gels
# Text: (§1) Last, we tested the ability of […]-designed combinations to prevent myofibroblast activation in VICs cultured on other substrates beyond stiff hydrogels. […] Six male-optimized combinations were effective in preventing male VIC myofibroblast activation (Fig. 7K). […] Single-drug monotherapies used in the top male and female drug combinations were confirmed to have a minimal effect on male and female VIC αSMA GMI on soft hydrogels (table S14). […] After aspirating off the spent media, VICs were resuspended in 5 ml of fresh 15% FBS media and seeded on T25 Falcon tissue culture-treated flasks (Thermo Fisher Scientific). […] VICs were collected by aspirating off spent media, washing with PBS (Sigma-Aldrich) for 1 min, then incubating with 1× trypsin (Life Technologies) for 3 min. Trypsin was neutralized with an equal volume of 15% FBS growth media and centrifuged for 5 min at 0.2g. The media solution was then aspirated, and VICs were resuspended with 1 ml of 1% FBS media. VICs were counted with an automated hemocytometer to calculate the volume of cell solution to add to each well to seed at 6400 cells per well (20,000 cells/cm^2) for TCPS and hydrogel experiments. […] For each inhibitor, the nonlinear regression tool in Prism was used to estimate the response against the agonist by fitting the top, bottom, EC50/CC50, and hillslope to each dataset.
# [2] = system: male VICs; assay: percent αSMA GMI reduction, male VICs on stiff hydrogels; format: cell-based, pig; conditions: for EC1 / EC2 / Percent αSMA reduction, Average: male VICs; for EC1 / EC2: from dose response curves; for Percent αSMA reduction, Average: n = 3-4 gels
# Method: (§2) Glass-bottom 96-well plates (Cellvis) were placed in an autoclave jar with a scintillation vial containing 100 μl of mercaptopropyltrimethoxysilane (MPTS; Sigma-Aldrich). The autoclave jar was then lightly sealed and placed inside an oven at 60°C for a minimum of 6 hours. The autoclave jar was opened in a chemical fume hood, and the vapor-deposited well plate was stored for up to 2 hours until ready for use. Eight-arm 20-kDa PEG-norbornene (PEG-Nb) was formed as outlined previously ([76]). A 7% (w/v) PEG-Nb hydrogel precursor solution was formed by combining phosphate-buffered saline (PBS), 20-kDa PEG-Nb at a 0.98:1 thiol-to-ene ratio, 5-kDa PEG-dithiol (Jenkem), CRGDS cell binding motif (Bachem), and lithium phenyl-2,4,6-trimethyl-benzoylphosphinate (Thermo Fisher Scientific). An EPMotion 5073l automated liquid handling system (Eppendorf) was used to pipet 7 μl of the hydrogel precursor solution into the center of each well of the vapor-deposited 96-well glass-bottom plate. The well plate with the hydrogel precursor solution was then stamped using a custom 96-well plate stamp, inverted, and cured under ultraviolet light at 10 mW/cm^2 for 3 min to induce gelation. The stamp was carefully removed by hand, and the newly formed gels were sterilized with a solution of 5% isopropyl alcohol (Thermo Fisher Scientific) in PBS for 20 min. Gels were then washed twice with PBS and stored in VIC media composed of Media199 (Life Technologies), 1% fetal bovine serum (FBS, Life Technologies), amphotericin B (1 μg/ml; Thermo Fisher Scientific), penicillin (50 U/ml; Sigma-Aldrich), and streptomycin (50 μg/ml; Sigma-Aldrich). Last, the hydrogels were placed in an incubator at 37°C with 5% carbon dioxide for up to 24 hours until experimental use.
# (§3) Media changes were performed every 24 to 48 hours until cells reached ~80% confluency. […] The media solution was then aspirated, and VICs were resuspended with 1 ml of 1% FBS media. VICs were counted with an automated hemocytometer to calculate the volume of cell solution to add to each well to seed at 6400 cells per well (20,000 cells/cm^2) for TCPS and hydrogel experiments. For all experiments, VICs were seeded with 1% FBS media containing the specified drug doses and incubated at 37°C with 5% carbon dioxide with media changes every 48 to 72 hours if needed.
# (§4) Drug stock solutions were discarded after two thaw cycles or after 10 months of storage. For all experiments, drug dilutions were calculated and added to VIC media to ensure that total DMSO levels remained below 1% for cytotoxicity and αSMA reduction curve fitting experiments and below 0.3% for drug combination experiments.
# (§5) After culture on hydrogels or TCPS, the spent drug-containing media were removed, and VICs were immersed in a 4% paraformaldehyde solution in PBS for 20 min and then permeabilized for 1 hour with 0.1% Triton X-100 (Thermo Fisher Scientific) in PBS. Cells were then blocked with 5% bovine serum albumin in PBS for 1 hour at room temperature or over the weekend at 4°C. […] Last, VICs were washed once with PBS and then stored in PBS at 4°C until imaging. Gel samples were imaged in situ using a Nikon Eclipse Ti2-E and analyzed using an automated MATLAB code to quantify the αSMA gradient mean intensities and caspase-3 intensities normalized to cell mask for each cell. A minimum of 100 cells were used per gel with multiple gels used per condition.
# (§6) Curve fitting for VIC percent αSMA reduction and cytotoxicity was performed using GraphPad Prism 10 (GraphPad Software Inc). For each inhibitor, the nonlinear regression tool in Prism was used to estimate the response against the agonist by fitting the top, bottom, EC50/CC50, and hillslope to each dataset. After 2 days of culture, the percent αSMA reduction was calculated using the average αSMA gradient mean intensities of the control relative to the drug condition using Eq. 1 %αSMA reduction=100×(Control−Drug Condition/Control) (1)
# [3] = system: male VICs; assay: percent αSMA GMI reduction by immunofluorescent staining, male VICs on TCPS; format: cell-based, pig; conditions: for reduction in αSMA GMI, initial screen: male VICs on TCPS, dosing range 10^-7 to 10^3 μM; for Percent αSMA reduction, Average: male VICs, single drug at L2 dose, n = 3 wells
# Method: (§7) VICs were collected by aspirating off spent media, washing with PBS (Sigma-Aldrich) for 1 min, then incubating with 1× trypsin (Life Technologies) for 3 min. Trypsin was neutralized with an equal volume of 15% FBS growth media and centrifuged for 5 min at 0.2g. The media solution was then aspirated, and VICs were resuspended with 1 ml of 1% FBS media. VICs were counted with an automated hemocytometer to calculate the volume of cell solution to add to each well to seed at 6400 cells per well (20,000 cells/cm^2) for TCPS and hydrogel experiments. […] For each inhibitor, the nonlinear regression tool in Prism was used to estimate the response against the agonist by fitting the top, bottom, EC50/CC50, and hillslope to each dataset.
# [4] = system: female VICs; assay: percent αSMA GMI reduction by immunofluorescent staining, female VICs on TCPS; format: cell-based, pig; conditions: for reduction in αSMA GMI, initial screen: female VICs on TCPS, dosing range 10^-7 to 10^3 μM; for Percent αSMA reduction, Average: female VICs, TCPS, n = 3 wells
# Method: as §7
# [5] = system: female VICs; assay: percent αSMA GMI reduction, female VICs on stiff hydrogels; format: cell-based, pig; conditions: for EC1 / EC2: from dose response curves; for Percent αSMA reduction, Average: n = 3-4 gels
# Method: as §2, §3, §4, §5, §6
# [6] = system: female VICs
# Method: as §5
# (§8) Percent cytotoxicity was determined by designating each cell as alive or dead using caspase-3 intensity normalized to cell mask intensity, which was thresholded using a positive and negative control for cell death [10 nM staurosporine (Cell Signaling Technologies) or 1% FBS media]. The bottom value for every curve fit was set to 0, and the top value was constrained to a maximum of 100 to indicate the maximum possible effect of the drug. […] Absolute EC and CC values for % αSMA reduction and percent cytotoxicity were quantified using the top, bottom, EC50/CC50, and hillslope values estimated from the curve fits generated in GraphPad Prism (GraphPad Software Inc).
# [7] = system: male VICs
# Method: as §5, §8
# [8] = ref (79) Irosustat, (80) Losartan, cited from earlier work
# [9] = system: female VICs; assay: percent αSMA GMI reduction, female VICs on soft hydrogels; format: cell-based, pig; conditions: n = 3 gels
# Text: as §1
# [10] = female VICs, stiff hydrogels, from dose response curves
# [11] = male VICs, stiff hydrogels, from dose response curves
SMILES,"Percent αSMA reduction, Average [1] [%]",EC1 [2] [µM],EC2 [2] [µM],"Percent αSMA reduction, Average ([2]; single drug at level 1 dose) [%]","Percent αSMA reduction, Average ([2]; single drug at level 2 dose) [%]","reduction in αSMA GMI, initial screen [3] [%]","Percent αSMA reduction, Average ([3]; TCPS) [%]","reduction in αSMA GMI, initial screen [4] [%]",EC1 [5] [µM],EC2 [5] [µM],"Percent αSMA reduction, Average ([5]; single drug at level 1 dose) [%]","Percent αSMA reduction, Average ([5]; single drug at level 2 dose) [%]",further results
NS(=O)(=O)Oc1ccc2c3c(c(=O)oc2c1)CCCCC3 [Irosustat],-10.38,92.6,106.3,0.84,0.67,> 25,-1.15,> 25,74.4,84.7,9.62,-0.55,"Percent αSMA reduction, Average ([4]; single drug at L1 dose): 1.88%; CC25 (percent cytotoxicity) ([6]; female VICs on stiff gels, n = 3 gels): 109 µM; CC1 [6, 10]: 50.2 µM; CC2 [6, 10]: 57.9 µM; CC25 (percent cytotoxicity) ([7]; male VICs on stiff gels, n = 3 gels): 125 µM; CC1 [7, 11]: 48.5 µM; CC2 [7, 11]: 58.7 µM; Cmax ([8]; read-out: 5% Cmax, 5% of Cmax from FDA documents and clinical studies): 0.0106 µM; Cmax ([8]; read-out: 10% Cmax, 10% of Cmax from FDA documents and clinical studies): 0.0212 µM; Percent αSMA reduction, Average ([9]; single drug at L1 dose): 4.80%"
CCCCc1nc(Cl)c(CO)n1Cc1ccc(-c2ccccc2-c2nn[nH]n2)cc1 [Losartan],0.81,18.7,32.9,5.58,0.99,> 25,-1.33,> 25,154,219,7.00,2.37,"sex difference in efficacy (male versus female EC20) ([2]; unpaired two-tailed t test, P < 0.05): reducing αSMA GMI more in male VICs relative to female VICs; sex difference in efficacy (male versus female EC20) ([3]; TCPS, unpaired two-tailed t test, P < 0.05): significantly more effective in male VICs relative to female VICs; Percent αSMA reduction, Average ([4]; single drug at L2 dose): 1.39%; CC1 ([6]; female, pig): 11.1 µM; CC2 ([6]; female, pig): 27 µM; CC25 (percent cytotoxicity) ([6]; female, pig): 927 µM; CC1 ([7]; male, pig): 378 µM; CC2 ([7]; male, pig): 470 µM; CC25 (percent cytotoxicity) ([7]; male, pig): 1,123 uM; Percent αSMA reduction, Average ([9]; single drug at L2 dose): 2.73%"
